Experiments:
[1] = target: T1, M2 (vagal bradycardia) (Rattus norvegicus, UniProt P10980); experiment: M1/M2 selectivity in the rat: inhibition of vagally stimulated bradycardia (M2); type: in vivo, male THOM rats; settings: iv, 5 min, i.v., 50% reduction in vagal bradycardia, read-out: M2 activity (rat) ED50
T1 construct: The bradycardia produced by vagus stimulation; from tissue; host or cells: whole animal (male THOM rats), heart
T1 sequence (P10980 1-466): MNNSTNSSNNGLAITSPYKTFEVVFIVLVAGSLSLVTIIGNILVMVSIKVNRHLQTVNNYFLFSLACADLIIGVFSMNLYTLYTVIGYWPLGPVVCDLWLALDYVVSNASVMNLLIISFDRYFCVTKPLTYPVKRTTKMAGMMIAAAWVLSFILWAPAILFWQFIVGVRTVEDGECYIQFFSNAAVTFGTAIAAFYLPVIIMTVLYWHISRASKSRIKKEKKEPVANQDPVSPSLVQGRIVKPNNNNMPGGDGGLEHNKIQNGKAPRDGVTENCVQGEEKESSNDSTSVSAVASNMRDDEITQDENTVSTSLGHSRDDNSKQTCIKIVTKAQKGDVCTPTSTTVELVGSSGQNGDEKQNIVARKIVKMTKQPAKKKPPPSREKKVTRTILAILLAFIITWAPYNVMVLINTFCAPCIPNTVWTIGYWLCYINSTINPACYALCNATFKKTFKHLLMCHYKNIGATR
Method: The method used was described by Hammer and Giachetti (Life Sciences 31, 2991-2998 (1982)). 5 minutes after intravenous injection of increasing doses of the substance, either the right vagus was electrically stimulated (frequency: 25 Hz; pulse width: 2 ms; duration of stimulus: 30 s; number of volts: supramaximal) or 0.3 mg/kg of McN-A-343 was injected intravenously into male THOM rats. The bradycardia produced by vagus stimulation and the increase in blood pressure produced by McN-A-343 were measured.

[2] = target: T2, muscarinic receptors, ileum (Cavia porcellus, UniProt H0W1Z3); experiment: Dissociation constants (KB) on ileum, methacholine antagonism; settings: guinea pig ileum, 30 min contact, read-out: KB Ileum (dissociation constant)
T2 construct: The ileum was removed and incubated in Krebs-Henseleit solution; from tissue; host or cells: isolated ileum of guinea pig
Method: Dissociation constants (KB values) were determined in vitro on the guinea pig ileum and spontaneously beating atrium. The ileum was removed and incubated in Krebs-Henseleit solution in an organ bath. Contractions were produced by means of increasing concentrations of methacholine (M) so that a full concentration-activity curve could be plotted.

[3] = target: T3, muscarinic receptors, submandibular gland (Rattus norvegicus, UniProt P08483); experiment: Receptor bonding test in vitro, submandibular gland (displacement of 3H-N-methylscopolamine); type: binding, Sprague-Dawley rats; settings: 0.3 nmolar 3H-NMS, 30° C., 45 min
T3 construct: After removal of the heart and submandibular gland; from tissue; host or cells: submandibular gland of male Sprague-Dawley rats, homogenate

[4] = target: T4, muscarinic receptors, lachrymal glands (Rattus norvegicus, UniProt P08483); experiment: Receptor bonding test in vivo, lachrymal glands (3H-NMS); parameters: species or system female rats; settings: iv, 0.5 h, in vivo binding, i.v., 113 ng/kg 3H-NMS, read-out: ID50 Lachrymal glands
T4 construct: from tissue; host or cells: lachrymal glands of female rats, labelled in vivo
Method: For these experiments, female rats with a body weight of about 200 g were used. Before the start of the test the animals were anaesthetised with a dosage of 1.25 g/kg of urethane. The animals were each given the prescribed dosage of test substance by intravenous injection. After 15 minutes, 113 ng/kg of ^3 H-N-methylscopolamine (^3 H-NMS) were administered by the same route. After another 15 minutes the animals were killed and the heart, bronchi and lachrymal glands were removed. These organs were dissolved in Soluene R and the radioactivity was determined. The measurements were assumed to be total bonding. […] ID50 values were determined for the individual organs using these tests.

T2 sequence (H0W1Z3 1-590): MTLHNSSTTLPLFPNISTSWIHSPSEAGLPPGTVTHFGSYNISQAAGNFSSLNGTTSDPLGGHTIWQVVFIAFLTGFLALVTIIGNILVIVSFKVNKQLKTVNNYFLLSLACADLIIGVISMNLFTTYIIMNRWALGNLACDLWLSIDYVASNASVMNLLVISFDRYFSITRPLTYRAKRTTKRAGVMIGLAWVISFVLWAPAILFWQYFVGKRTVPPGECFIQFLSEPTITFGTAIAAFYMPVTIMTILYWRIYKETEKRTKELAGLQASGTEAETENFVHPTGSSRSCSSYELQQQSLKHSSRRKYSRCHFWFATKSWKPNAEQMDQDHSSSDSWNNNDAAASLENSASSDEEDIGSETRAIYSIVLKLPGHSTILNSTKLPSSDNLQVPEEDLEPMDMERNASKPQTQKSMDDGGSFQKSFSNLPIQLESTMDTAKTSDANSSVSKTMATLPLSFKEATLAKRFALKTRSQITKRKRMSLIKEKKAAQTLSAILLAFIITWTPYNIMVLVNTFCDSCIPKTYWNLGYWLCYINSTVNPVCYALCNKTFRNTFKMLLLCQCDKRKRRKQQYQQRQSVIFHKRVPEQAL
T3 sequence (P08483 whole entry): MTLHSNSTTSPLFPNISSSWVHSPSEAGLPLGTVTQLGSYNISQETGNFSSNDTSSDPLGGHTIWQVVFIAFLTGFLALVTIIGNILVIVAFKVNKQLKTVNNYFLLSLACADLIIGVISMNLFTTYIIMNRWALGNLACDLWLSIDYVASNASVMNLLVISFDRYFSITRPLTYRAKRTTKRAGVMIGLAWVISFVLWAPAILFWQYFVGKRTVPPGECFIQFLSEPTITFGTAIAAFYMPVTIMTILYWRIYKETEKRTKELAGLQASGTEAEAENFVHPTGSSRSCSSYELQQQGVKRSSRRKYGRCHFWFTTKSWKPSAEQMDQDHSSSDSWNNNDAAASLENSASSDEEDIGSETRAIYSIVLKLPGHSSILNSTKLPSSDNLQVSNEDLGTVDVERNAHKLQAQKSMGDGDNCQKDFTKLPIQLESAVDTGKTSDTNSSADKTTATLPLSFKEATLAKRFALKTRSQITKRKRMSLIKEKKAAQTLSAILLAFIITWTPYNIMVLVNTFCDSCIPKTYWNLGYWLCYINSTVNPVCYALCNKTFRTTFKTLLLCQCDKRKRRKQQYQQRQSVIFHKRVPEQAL
T4 sequence (P08483 whole entry): as above

ED50 [1] [mg/kg] | Kb [2] [nM] | IC50 [3] [nM] | ED50 [4] [mg/kg] | SMILES
0.008 | 3.63 | 15 | > 1 | CCN(CC)CC1CCCCN1CCNC(=O)N1c2ccccc2NC(=O)c2csc(C)c21 (stereo not shown) [Substance B, 4-[[[2-[2-[(diethylamino)methyl]-piperidin-1-yl]ethyl]amino]carbonyl]-4,9-dihydro-3-methyl-10H-thieno[3,4-b][1,5]benzodiazepin-10-one]
0.058 | 83.2 | 150 | – | CCN(CC)CC1CCCCN1CCNC(=O)N1c2cc(Cl)ccc2C(=O)Nc2cccnc21 (stereo not shown) [Substance C, 9-chloro-11-[[[2-[2-[(diethylamino)methyl]-piperidin-1-yl]ethyl]amino]carbonyl]-5,11-dihydro-6H-pyrido[2,3-b][1,4]benzodiazepin-6-one]
0.019 | 25.7 | – | > 10 | CCCN(CCC)CC1CCCCN1CCNC(=O)N1c2ccccc2C(=O)Nc2cccnc21 (stereo not shown) [Substance A, 5,11-dihydro-11-[[[2-[2-[(dipropylamino)methyl]-piperidin-1-yl]ethyl]amino]carbonyl]-6H-pyrido[2,3-b][1,4]benzodiazepin-6-one]
